Nine compounds from patent US20260015350A1, “AZAQUINAZOLINE PAN-KRAS INHIBITORS” (Mirati Therapeutics, Inc., priority 2022, published 2026) can be followed below.

One test concerns the target T1, KRas^G12D (Homo sapiens, UniProt P01116, G12D).
T1 construct: Biotinylated KRas (corresponding to amino acids 1-169, produced at Accelegan Inc.); biotin (biotinylated); purchased Accelegan Inc
The test can be described thus: KRas binding assay (TR-FRET tracer displacement), KRas G12D.

The next test concerns the target T2, KRas^G12R (Homo sapiens, UniProt P01116, G12R).
T2 construct: Biotinylated KRas (corresponding to amino acids 1-169, produced at Accelegan Inc.); biotin (biotinylated); purchased Accelegan Inc
The test can be described thus: KRas binding assay (TR-FRET tracer displacement), KRas G12R.

The target of a further test is T3, KRas^G12V (Homo sapiens, UniProt P01116, G12V).
T3 construct: Biotinylated KRas (corresponding to amino acids 1-169, produced at Accelegan Inc.); biotin (biotinylated); purchased Accelegan Inc
The test can be described thus: KRas binding assay (TR-FRET tracer displacement), KRas G12V.

Test [1] has as its system KRas-mediated phosphorylation of ERK in MKN1 cells. The experiment in a line: Inhibition of KRas-mediated phosphorylation of ERK (Cisbio HTRF pERK), MKN1 cells. Format: cell-based. The following applies: Homo sapiens, MKN-1. The procedure, abridged: (§1)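 Day 1 seeding: 6,000 cells per well, RPMI/10% FBS, left overnight at 37° C. with 5% CO2. Plates then stood covered for 4 h at room temperature prior to HTRF detection of pERK.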

Test [2] relates to KRas-mediated phosphorylation of ERK in PSN1 cells. The experiment in a line: Inhibition of KRas-mediated phosphorylation of ERK (Cisbio HTRF pERK), PSN1 cells. The test is classed as cell-based. The following applies: Homo sapiens. The procedure, abridged:
as §1

Test [3] has as its system KRas-mediated phosphorylation of ERK in AsPC-1 cells. The test can be described thus: Inhibition of KRas-mediated phosphorylation of ERK (Cisbio HTRF pERK), AsPC-1 cells. The following applies: Homo sapiens, ASPC1, AsPC-1 cells; HTRF pERK. The test is classed as cell-based. Put shortly:
(§2)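 HTRF readout of phospho-ERK in cell lysates after 3 hrs of compound exposure. Dosing: 10 uM top, 3-fold steps, 10 doses, final DMSO 0.8%. Min control: 0.2 uM Trametinib. Lysis ran 40 mins at 4° C, and antibody detection 2 hrs at room temperature.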

In test [4] the test system is KRas-mediated phosphorylation of ERK in H727 cells. The experiment in a line: Inhibition of KRas-mediated phosphorylation of ERK (Cisbio HTRF pERK), H727 cells. Format: cell-based. The following applies: Homo sapiens, NCI-H727, H727 cells; HTRF pERK. The procedure, abridged:
as §2

The subject of test [5] is KRas-mediated phosphorylation of ERK in A549 cells. The test can be described thus: Inhibition of KRas-mediated phosphorylation of ERK (Cisbio HTRF pERK), A549 cells. The test is classed as cell-based. The following applies: Homo sapiens, HTRF pERK. Put shortly:
(§3)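 Phosphorylated ERK was quantified by HTRF using d2-conjugate and Cryptate antibodies added to lysates for 2 hrs at room temperature.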

For test [6], the system named is KRas-mediated phosphorylation of ERK in H460 cells. The experiment in a line: Inhibition of KRas-mediated phosphorylation of ERK (Cisbio HTRF pERK), H460 cells. The following applies: Homo sapiens, NCI-H460, HTRF pERK. Format: cell-based. Put shortly:
as §2

Test [7] has as its system KRas-mediated phosphorylation of ERK in HCT116 cells. The experiment in a line: Inhibition of KRas-mediated phosphorylation of ERK (Cisbio HTRF pERK), HCT116 cells. The following applies: Homo sapiens, HCT-116, HTRF pERK. The test is classed as cell-based. Put shortly: as §3
Test [8] concerns KRas-mediated phosphorylation of ERK in H358 cells. The test can be described thus: Inhibition of KRas-mediated phosphorylation of ERK (Cisbio HTRF pERK), H358 cells. The following applies: Homo sapiens, NCI-H358, HTRF pERK. Format: cell-based. Put shortly: as §2

T1 sequence (P01116 1-169 isoform P01116-2 G12D): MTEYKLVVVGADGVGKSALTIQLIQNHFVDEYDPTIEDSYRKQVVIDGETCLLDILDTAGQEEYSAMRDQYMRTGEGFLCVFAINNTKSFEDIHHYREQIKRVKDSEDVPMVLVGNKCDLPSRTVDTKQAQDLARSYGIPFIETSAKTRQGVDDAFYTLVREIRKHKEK
T3 sequence (P01116 1-169 isoform P01116-2 G12V): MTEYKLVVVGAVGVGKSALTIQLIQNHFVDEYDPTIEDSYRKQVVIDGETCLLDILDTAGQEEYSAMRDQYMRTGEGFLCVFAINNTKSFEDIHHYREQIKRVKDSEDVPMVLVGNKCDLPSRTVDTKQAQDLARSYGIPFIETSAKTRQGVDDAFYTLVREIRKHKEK
T2 sequence (P01116 1-169 isoform P01116-2 G12R): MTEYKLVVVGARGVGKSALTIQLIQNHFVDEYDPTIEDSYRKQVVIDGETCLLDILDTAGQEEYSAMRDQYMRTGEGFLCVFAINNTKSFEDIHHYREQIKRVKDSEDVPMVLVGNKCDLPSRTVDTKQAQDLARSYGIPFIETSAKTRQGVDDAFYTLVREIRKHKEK

In the case of `CCc1c(F)ccc2cc(O)cc(-c3ncc4c(N5CC6CCC(COC)(C6)C5)nc(OC[C@@]56CCCN5C[C@H](F)C6)nc4c3F)c12` (stereo partly drawn) [Example 891, 5-ethyl-6-fluoro-4-(8-fluoro-2-(((2R,7aS)-2-fluorotetrahydro-1H-pyrrolizin-7a(5H)-yl)methoxy)-4-(1-(methoxymethyl)-3-azabicyclo[3.2.1]octan-3-yl)pyrido[4,3-d]pyrimidin-7-yl)naphthalen-2-ol], the half-maximal inhibitory concentration (IC50) on KRas^G12D is 22 nM; on KRas^G12R, 9 nM; on KRas^G12V, 6 nM; in test [1], 73 nM; in [2], above 10000 nM; in [3] it was 621 nM. Also, the half-maximal inhibitory concentration (IC50) in [4] is 295 nM; in [5], 658 nM; in test [6] it was 150 nM; in test [7], 568 nM; in test [8], 382 nM.

Take `CCc1c(F)ccc2cc(O)cc(-c3ncc4c(N5CC6CCC(COC(=O)N(C)C)(C6)C5)nc(OC[C@@]56CCCN5C[C@H](F)C6)nc4c3F)c12` (stereo partly drawn) [Example 892, (3-(7-(8-ethyl-7-fluoro-3-hydroxynaphthalen-1-yl)-8-fluoro-2-(((2R,7aS)-2-fluorotetrahydro-1H-pyrrolizin-7a(5H)-yl)methoxy)pyrido[4,3-d]pyrimidin-4-yl)-3-azabicyclo[3.2.1]octan-1-yl)methyl dimethylcarbamate]: the 50% inhibitory concentration (IC50) at KRas^G12D is 120 nM; on KRas^G12R it was 26 nM; at KRas^G12V, 26 nM; in [1], 174 nM; in test [2] it was above 10000 nM; in test [3] it was 2180 nM. Moreover, the half-inhibitory concentration (IC50) in test [4] turned out to be 1630 nM; in test [5], 2140 nM; in [6], 382 nM; in test [7], 992 nM; in test [8], 960 nM.

Consider `CCc1c(F)ccc2cc(O)cc(-c3ncc4c(N5CCC[C@@](C)(O)C5)nc(OC[C@@]56CCCN5[C@H](COC(C)C)CC6)nc4c3F)c12` [Example 895, (R)-1-(7-(8-ethyl-7-fluoro-3-hydroxynaphthalen-1-yl)-8-fluoro-2-(((3S,7aS)-3-(isopropoxymethyl)tetrahydro-1H-pyrrolizin-7a(5H)-yl)methoxy)pyrido[4,3-d]pyrimidin-4-yl)-3-methylpiperidin-3-ol], for which the IC50 on KRas^G12D was below 2 nM; on KRas^G12R it was below 2 nM; on KRas^G12V it was below 2 nM; in [1] it was 11 nM; in [2], 905 nM; in test [3], 27 nM. For the same compound, the IC50 in test [4] was determined as 119 nM; in test [5] it was 73 nM; in test [6] it was 42 nM; in [7], 79 nM; in [8], 11 nM.

Regarding `CCc1c(F)ccc2cc(O)cc(-c3ncc4c(N5CCOCC6(CNC(=O)N6)C5)nc(OC[C@@]56CCCN5C[C@H](F)C6)nc4c3F)c12` (stereo partly drawn) [Example 898, 10-(7-(8-ethyl-7-fluoro-3-hydroxynaphthalen-1-yl)-8-fluoro-2-(((2R,7aS)-2-fluorotetrahydro-1H-pyrrolizin-7a(5H)-yl)methoxy)pyrido[4,3-d]pyrimidin-4-yl)-7-oxa-1,3,10-triazaspiro[4.6]undecan-2-one], the IC50 on KRas^G12D is below 2 nM; at KRas^G12R, below 2 nM; on KRas^G12V, below 2 nM; in test [1] it was 196 nM; in test [2], above 10000 nM; in [3], 250 nM. The concentration for half-maximal inhibition (IC50) in test [4] was 836 nM; in [5] it was 355 nM; in [6], 252 nM; in test [7], 1010 nM; in [8], 56 nM.

For `CCc1c(F)ccc2cc(O)cc(-c3ncc4c(N5CC6CCC(CO)(C5)C6(F)F)nc(OC[C@@]56CCCN5C[C@H](F)C6)nc4c3F)c12` (stereo partly drawn) [Example 901, 4-(4-(8,8-difluoro-1-(hydroxymethyl)-3-azabicyclo[3.2.1]octan-3-yl)-8-fluoro-2-(((2R,7aS)-2-fluorotetrahydro-1H-pyrrolizin-7a(5H)-yl)methoxy)pyrido[4,3-d]pyrimidin-7-yl)-5-ethyl-6-fluoronaphthalen-2-ol], the IC50 at KRas^G12D was 99 nM; at KRas^G12R, 20 nM; at KRas^G12V, 60 nM; in test [1], 19 nM; in test [2], above 10000 nM; in test [3], 2450 nM. For the same compound, the IC50 in test [4] amounted to 2420 nM; in [5] it was 873 nM; in [6], 368 nM; in test [7] it was 1400 nM; in [8], 623 nM.

For `CCc1c(F)ccc2cc(O)cc(-c3ncc4c(N5CCC[C@@](C)(O)C5)nc(OC[C@@]56CCCN5[C@H](COCC5CCCC5)CC6)nc4c3F)c12` [Example 904, (R)-1-(2-(((3S,7aS)-3-((cyclopentylmethoxy)methyl)tetrahydro-1H-pyrrolizin-7a(5H)-yl)methoxy)-7-(8-ethyl-7-fluoro-3-hydroxynaphthalen-1-yl)-8-fluoropyrido[4,3-d]pyrimidin-4-yl)-3-methylpiperidin-3-ol], the half-inhibitory concentration (IC50) on KRas^G12D is below 2 nM; at KRas^G12R, below 2 nM; on KRas^G12V, below 2 nM; in [1] it was 4 nM; in test [2], 2510 nM; in test [3], 30 nM. For the same compound, the IC50 amounted to 121 nM in test [4]; 112 nM in test [5]; 53 nM in test [6]; 167 nM in test [7]; 21 nM in [8].

Take `CCc1c(F)ccc2cc(O)cc(-c3ncc4c(N5CC6CCC(C(=O)N(C)C)(C5)C6(F)F)nc(OC[C@@]56CCCN5C[C@H](F)C6)nc4c3F)c12` (stereo partly drawn) [Example 905, 3-(7-(8-ethyl-7-fluoro-3-hydroxynaphthalen-1-yl)-8-fluoro-2-(((2R,7aS)-2-fluorotetrahydro-1H-pyrrolizin-7a(5H)-yl)methoxy)pyrido[4,3-d]pyrimidin-4-yl)-8,8-difluoro-N,N-dimethyl-3-azabicyclo[3.2.1]octane-1-carboxamide]: the IC50 was 297 nM on KRas^G12D; 94 nM on KRas^G12R; 394 nM at KRas^G12V; 1140 nM in [1]; above 10000 nM in [2]; 4150 nM in [3]. The IC50 in [4] is 7440 nM; in test [5] it was 2610 nM; in [6], 1350 nM; in test [7], 6310 nM; in test [8], 2700 nM.

For `CCc1c(F)ccc2cc(O)cc(-c3ncc4c(N5C[C@H]6CC[C@@](C(=O)NC)(C5)C6(F)F)nc(OC[C@@]56CCCN5C[C@H](F)C6)nc4c3F)c12` [Example 907, (1S,5R)-3-(7-(8-ethyl-7-fluoro-3-hydroxynaphthalen-1-yl)-8-fluoro-2-(((2R,7aS)-2-fluorotetrahydro-1H-pyrrolizin-7a(5H)-yl)methoxy)pyrido[4,3-d]pyrimidin-4-yl)-8,8-difluoro-N-methyl-3-azabicyclo[3.2.1]octane-1-carboxamide], the concentration for half-maximal inhibition (IC50) at KRas^G12D is 88 nM; on KRas^G12R it was 18 nM; on KRas^G12V, 23 nM; in test [1], 137 nM; in test [2] it was above 10000 nM; in test [3] it was 2040 nM. For the same compound, the IC50 in test [4] is 922 nM; in test [5] it was 827 nM; in [6], 590 nM; in [7], 1580 nM; in test [8], 325 nM.

Regarding `CCc1c(F)ccc2cc(O)cc(-c3ncc4c(N5CC6CCC(CC(=O)N(C)C)(C6)C5)nc(OC[C@@]56CCCN5C[C@H](F)C6)nc4c3F)c12` (stereo partly drawn) [Example 911, 2-(3-(7-(8-ethyl-7-fluoro-3-hydroxynaphthalen-1-yl)-8-fluoro-2-(((2R,7aS)-2-fluorotetrahydro-1H-pyrrolizin-7a(5H)-yl)methoxy)pyrido[4,3-d]pyrimidin-4-yl)-3-azabicyclo[3.2.1]octan-1-yl)-N,N-dimethylacetamide], the concentration for half-maximal inhibition (IC50) on KRas^G12D is 11 nM; at KRas^G12R, 10 nM; on KRas^G12V, 3 nM; in test [1], 17 nM; in test [2] it was above 10000 nM; in test [3] it was 526 nM. In addition, the IC50 in test [4] amounted to 527 nM; in test [5], 226 nM; in test [6], 108 nM; in [7], 231 nM; in test [8] it was 114 nM.
